Measured values as given in patent publication US12319648B2, “Fluorinated phenylacetic acid derivatives in a weed control method” (SYNGENTA CROP PROTECTION AG, priority 2019, dated 2025).

Experiments:
Type in all cases: in vivo
[1] = test system: Ipomoea hederacea (IPOHE); experiment: Post-emergence herbicidal glasshouse test; settings: post-emergence, 250 g/ha, 13 days after application
Procedure: (§1) Seeds of a variety of test species are shown in standard soil in pots Amaranthus retoflexus (AMARE), Ipomoea hederacea (IPOHE), Solanum nigrum (SOLNI), Lolium perenne (LOLPE). Echinochloa crus-galli (ECHCG), Setaria faberi (SETFA)). After cultivation for one day (pre-emergence) or after 8 days cultivation (post-emergence) under controlled conditions in a glasshouse (at 24/16° C., day/night; 14 hours light; 65% humidity), the plants are sprayed with an aqueous spray solution derived from the formulation of the technical active ingredient in acetone/water (50:50) solution containing 0.5% Tween 20 (polyoxyethylene sorbitan monolaurate, CAS RN 9005-64-5). Compounds are applied at 250 g/ha unless otherwise stated. The test plants are then grown in a glasshouse under controlled conditions in a glasshouse (at 24/16° C., day/night; 14 hours light; 65% humidity) and watered twice daily. After 13 days for pre and post-emergence, the test is evaluated for the percentage damage caused to the plant. The biological activities are shown in the following table on a five-point scale (5=81-100%; 4=61-80%; 3=41-60%; 2=21-40%; 1=0-20%).
(§2) Using the experimental conditions outlined above, a further test is conducted to compare the herbicidal properties of the difluro containing compound (1.014) with a representative compound (C1) referred to in GB901553. The compounds are applied at 1000 g/ha and 500 g/ha. The test is evaluated for the percentage damage caused to the plant (% phytotoxicity).

Lolium perenne (LOLPE) [2] = experiment: Post-emergence herbicidal glasshouse test; settings: post-emergence, 250 g/ha, 13 days after application
Procedure: as §1, §2

Setaria faberi (SETFA) [3] = experiment: Post-emergence herbicidal glasshouse test; settings: post-emergence, 250 g/ha, 13 days after application
Procedure: as §1, §2

[4] = test system: Amaranthus retoflexus (AMARE); experiment: Post-emergence herbicidal glasshouse test; settings: post-emergence, 250 g/ha, 13 days after application
Procedure: as §1, §2

[5] = test system: Echinochloa crus-galli (ECHCG); experiment: Post-emergence herbicidal glasshouse test; settings: post-emergence, 250 g/ha, 13 days after application
Procedure: as §1, §2

Solanum nigrum (SOLNI) = experiment: Post-emergence herbicidal glasshouse test; settings: post-emergence, 250 g/ha, 13 days after application
Procedure: as §1, §2

[6] = test system: Ipomoea hederacea (IPOHE); experiment: Pre-emergence herbicidal glasshouse test; settings: pre-emergence, 250 g/ha, 13 days after application
Procedure: as §1, §2

Lolium perenne (LOLPE) [7] = experiment: Pre-emergence herbicidal glasshouse test; settings: pre-emergence, 250 g/ha, 13 days after application
Procedure: as §1, §2

Setaria faberi (SETFA) [8] = experiment: Pre-emergence herbicidal glasshouse test; settings: pre-emergence, 250 g/ha, 13 days after application
Procedure: as §1, §2

[9] = test system: Echinochloa crus-galli (ECHCG); experiment: Pre-emergence herbicidal glasshouse test; settings: pre-emergence, 250 g/ha, 13 days after application
Procedure: as §1, §2

[10] = test system: Amaranthus retoflexus (AMARE); experiment: Pre-emergence herbicidal glasshouse test; settings: pre-emergence, 250 g/ha, 13 days after application
Procedure: as §1, §2

Compound	percentage damage caused to the plant, five-point scale, IPOHE [1]	percentage damage caused to the plant, five-point scale, LOLPE (Lolium perenne (LOLPE) [2])	percentage damage caused to the plant, five-point scale, SETFA (Setaria faberi (SETFA) [3])	percentage damage caused to the plant, five-point scale, AMARE [4]	percentage damage caused to the plant, five-point scale, ECHCG [5]	percentage damage caused to the plant, five-point scale, SOLNI (Solanum nigrum (SOLNI))	percentage damage caused to the plant, five-point scale, IPOHE [6]	percentage damage caused to the plant, five-point scale, LOLPE (Lolium perenne (LOLPE) [7])	percentage damage caused to the plant, five-point scale, SETFA (Setaria faberi (SETFA) [8])	percentage damage caused to the plant, five-point scale, ECHCG [9]	percentage damage caused to the plant, five-point scale, AMARE [10]
O=C(O)C(F)(F)c1cccc(Cl)c1Cl [Compound 1.034]	4 (4=61-80%)	1 (1=0-20%)	3 (3=41-60%)	5 (5=81-100%)	2 (2=21-40%)	3 (3=41-60%)	5 (5=81-100%)	2 (2=21-40%)	1 (1=0-20%)	2 (2=21-40%)	–
Cc1c(Cl)ccc(Cl)c1C(F)(F)C(=O)O.N [Compound 1.084]	4 (4=61-80%)	–	–	2 (2=21-40%)	1 (1=0-20%)	–	1 (1=0-20%)	–	–	1 (1=0-20%)	2 (2=21-40%)
O=C(O)C(F)(F)c1cccc(C(F)(F)F)c1Cl [Compound 1.059]	5 (5=81-100%)	–	–	5 (5=81-100%)	3 (3=41-60%)	–	5 (5=81-100%)	–	–	1 (1=0-20%)	1 (1=0-20%)
O=C(O)C(F)(F)c1ccc(F)c(Cl)c1F [Compound 1.051]	4 (4=61-80%)	–	–	5 (5=81-100%)	1 (1=0-20%)	–	5 (5=81-100%)	–	–	1 (1=0-20%)	3 (3=41-60%)
O=C(O)C(F)(F)c1cccc(Cl)c1Cl [Compound 1.040]	3 (3=41-60%)	1 (1=0-20%)	3 (3=41-60%)	4 (4=61-80%)	2 (2=21-40%)	2 (2=21-40%)	5 (5=81-100%)	1 (1=0-20%)	1 (1=0-20%)	1 (1=0-20%)	–
O=C(O)C(F)(F)c1c(Cl)cccc1Cl [Compound 1.044]	4 (4=61-80%)	–	–	3 (3=41-60%)	1 (1=0-20%)	–	3 (3=41-60%)	–	–	1 (1=0-20%)	2 (2=21-40%)
Cc1ccc(Cl)c(Cl)c1C(F)(F)C(=O)O.N [Compound 1.063]	3 (3=41-60%)	–	–	4 (4=61-80%)	1 (1=0-20%)	–	1 (1=0-20%)	–	–	1 (1=0-20%)	1 (1=0-20%)
O=C([O-])C(F)(F)c1cccc(Cl)c1Cl.[K+] [Compound 1.042]	4 (4=61-80%)	1 (1=0-20%)	3 (3=41-60%)	5 (5=81-100%)	2 (2=21-40%)	4 (4=61-80%)	5 (5=81-100%)	2 (2=21-40%)	–	1 (1=0-20%)	–
Cc1c(F)cccc1C(F)(F)C(=O)O [Compound 1.075]	4 (4=61-80%)	–	–	5 (5=81-100%)	1 (1=0-20%)	–	3 (3=41-60%)	–	–	1 (1=0-20%)	3 (3=41-60%)
Cc1c(Cl)cccc1C(F)(F)C(=O)O [Compound 1.058]	5 (5=81-100%)	–	–	5 (5=81-100%)	3 (3=41-60%)	–	5 (5=81-100%)	–	–	3 (3=41-60%)	5 (5=81-100%)
Cc1cccc(C(F)(F)C(=O)O)c1F.N [Compound 1.061]	3 (3=41-60%)	–	–	1 (1=0-20%)	1 (1=0-20%)	–	1 (1=0-20%)	–	–	1 (1=0-20%)	3 (3=41-60%)
Cc1cccc(C(F)(F)C(=O)O)c1C(F)(F)F.N [Compound 1.062]	3 (3=41-60%)	–	–	4 (4=61-80%)	1 (1=0-20%)	–	3 (3=41-60%)	–	–	1 (1=0-20%)	3 (3=41-60%)
O=C(O)C(F)(F)c1cccc(Cl)c1Br [Compound 1.050]	5 (5=81-100%)	–	–	5 (5=81-100%)	2 (2=21-40%)	–	5 (5=81-100%)	–	–	2 (2=21-40%)	5 (5=81-100%)
O=C(O)C(F)(F)c1cccc(Cl)c1C(F)(F)F [Compound 1.060]	5 (5=81-100%)	–	–	5 (5=81-100%)	1 (1=0-20%)	–	3 (3=41-60%)	–	–	1 (1=0-20%)	5 (5=81-100%)
O=C(O)C(F)(F)c1cccc(Cl)c1Cl [Compound 1.039]	4 (4=61-80%)	1 (1=0-20%)	3 (3=41-60%)	5 (5=81-100%)	2 (2=21-40%)	3 (3=41-60%)	5 (5=81-100%)	3 (3=41-60%)	2 (2=21-40%)	1 (1=0-20%)	–
O=C(O)C(F)(F)c1cccc(Cl)c1Cl [Compound 1.041]	–	4 (4=61-80%)	–	–	4 (4=61-80%)	4 (4=61-80%)	–	–	–	–	–
O=C([O-])C(F)(F)c1cccc(Cl)c1Cl.[Na+] [Compound 1.038]	4 (4=61-80%)	1 (1=0-20%)	4 (4=61-80%)	5 (5=81-100%)	2 (2=21-40%)	4 (4=61-80%)	5 (5=81-100%)	2 (2=21-40%)	3 (3=41-60%)	1 (1=0-20%)	–
